Assay results: PubChem BioAssay AID367 (MTDP, 2006)
pIC50: −log10 of the molar value. Several values for one entry are separate records, joined by “and”; a condition that tells them apart may be missing. Identical values can stand only once. Activity calls are given as the source filed them. How the calls were made is not given here.

Biological target: Gag-Pol polyprotein (Human immunodeficiency virus type 2 subtype A (isolate ROD)) (UniProt P04584)
Experiment: Ribonuclease H inhibitors of HIV-2 reverse transcriptase, biochemical dose response (AID 367)
Details: HIV-2 RNase H, FRET RNA/DNA substrate cleavage

Sequence of Gag-Pol polyprotein (Human immunodeficiency virus type 2 subtype A (isolate ROD)) (P04584 whole entry, looked up): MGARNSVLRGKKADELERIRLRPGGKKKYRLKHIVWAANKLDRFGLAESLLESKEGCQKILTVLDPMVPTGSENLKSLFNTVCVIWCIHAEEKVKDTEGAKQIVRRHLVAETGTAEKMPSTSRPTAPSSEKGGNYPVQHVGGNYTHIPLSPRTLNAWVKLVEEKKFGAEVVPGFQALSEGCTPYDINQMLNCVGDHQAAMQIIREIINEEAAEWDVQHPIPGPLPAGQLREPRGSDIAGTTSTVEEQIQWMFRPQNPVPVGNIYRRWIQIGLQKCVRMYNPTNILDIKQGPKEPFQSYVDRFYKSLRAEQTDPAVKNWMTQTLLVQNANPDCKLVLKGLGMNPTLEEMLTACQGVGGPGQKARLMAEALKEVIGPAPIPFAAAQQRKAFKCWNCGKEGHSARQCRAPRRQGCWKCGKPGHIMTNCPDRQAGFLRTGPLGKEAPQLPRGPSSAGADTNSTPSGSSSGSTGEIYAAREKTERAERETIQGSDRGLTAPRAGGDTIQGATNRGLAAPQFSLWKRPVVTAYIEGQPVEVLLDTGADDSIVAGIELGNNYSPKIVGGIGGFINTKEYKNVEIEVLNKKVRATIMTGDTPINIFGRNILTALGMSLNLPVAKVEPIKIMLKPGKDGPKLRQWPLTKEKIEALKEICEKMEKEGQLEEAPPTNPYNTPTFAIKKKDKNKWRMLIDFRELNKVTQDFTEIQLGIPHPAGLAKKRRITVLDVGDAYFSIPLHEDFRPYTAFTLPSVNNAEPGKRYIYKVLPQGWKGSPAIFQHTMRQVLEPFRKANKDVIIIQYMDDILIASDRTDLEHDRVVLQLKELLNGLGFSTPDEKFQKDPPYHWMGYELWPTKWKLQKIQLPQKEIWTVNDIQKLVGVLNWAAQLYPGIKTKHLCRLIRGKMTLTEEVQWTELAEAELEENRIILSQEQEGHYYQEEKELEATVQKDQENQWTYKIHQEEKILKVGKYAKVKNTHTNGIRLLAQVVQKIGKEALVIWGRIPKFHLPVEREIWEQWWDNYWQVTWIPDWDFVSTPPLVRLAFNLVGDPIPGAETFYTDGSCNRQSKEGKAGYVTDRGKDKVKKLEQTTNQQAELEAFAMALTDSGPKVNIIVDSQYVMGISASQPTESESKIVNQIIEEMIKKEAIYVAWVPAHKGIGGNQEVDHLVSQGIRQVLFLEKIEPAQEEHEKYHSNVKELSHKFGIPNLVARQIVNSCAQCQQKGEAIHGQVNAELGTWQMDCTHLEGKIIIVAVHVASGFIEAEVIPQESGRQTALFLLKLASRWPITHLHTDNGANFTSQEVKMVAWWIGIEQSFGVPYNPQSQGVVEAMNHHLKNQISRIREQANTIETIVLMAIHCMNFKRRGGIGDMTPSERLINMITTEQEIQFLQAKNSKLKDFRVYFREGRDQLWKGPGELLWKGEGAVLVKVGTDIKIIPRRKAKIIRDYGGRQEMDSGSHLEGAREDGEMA

Row | Structure (SMILES) | pIC50 | IC50
1 | O=C(CSc1nc2ccccc2s1)c1sc2sc3ccccc3[n+]2c1[O-] | 5.72 | –
2 | O=C(O)CCc1c2ccc(=O)c(O)c-2oc2c(O)c(O)ccc12 | 6.22 | –
3 | Nc1ccc(N=Nc2ccc(-c3ccc(O)cc3)cc2)c2ccc(S(=O)(=O)O)cc12 | 5.20 | –
4 | C=C1C(=O)O[C@@H]2/C=C(\C)CC/C=C(\C(=O)O)CC/C=C(\C)CC[C@H]12 | 5.26 | –
5 | O=C1/C(=C/c2ccc(O)c(O)c2)SC(=S)N1C1CCCCC1 | 5.04 | –
6 | CCOc1ccc(C2=CC(=O)C=CC2=O)cc1 | 6.15 | –
7 | O=C1C(Cl)=C(Nc2ccc(S(=O)(=O)Nc3ccccn3)cc2)C(=O)c2ccccc21 | 5.47 | –
8 | Nc1c(S(=O)(=O)O)cc(Nc2cccc(S(N)(=O)=O)c2)c2c1C(=O)c1ccccc1C2=O | 5.40 | –
9 | COc1cc(-c2[o+]c3cc(O)cc(O)c3cc2O)cc(O)c1O | 5.39 and 5.51 | –
10 | CCc1c(O)c2c(c(O)c1C(C)=O)C(=O)c1c(cc(O)c(C(=O)O)c1C(=O)O)C2=O | 5.46 | –
11 | O=C(Nc1sc2c(c1C(=O)Nc1cccc3ccccc13)CCCCC2)c1ccccc1F | – | inactive
12 | O=C1C=C/C(=N\S(=O)(=O)c2cc(Cl)ccc2Cl)C=C1Cl | 5.70 | –
13 | Cc1sc(NC(=O)c2ccc3c(c2)OCO3)c(C(N)=O)c1C | 5.00 | –
14 | CC1=NN(c2ccc(S(N)(=O)=O)cc2)C(=O)/C1=C/c1ccc(-c2ccc(Cl)cc2Cl)o1 | 5.44 | –
15 | Oc1ccc2ccccc2c1C=NCc1c(O)ccc2ccccc12 | – | inactive
16 | CCCc1cc(=O)oc2c3c(c4c(c12)OC(C)(C)C=C4)O[C@@H](C)[C@H](C)[C@@H]3F | – | inactive
17 | COc1cc(C=O)ccc1OCCCOc1cccc(Oc2ccccc2)c1 | – | > 100 µM (inactive)
18 | COc1ccccc1NC(=O)c1c(NC(=O)Cc2ccccc2)sc2c1CCCCC2 | 5.07 | –
19 | O=C(O)/C=C/c1c2ccc(=O)c(O)c-2oc2c(O)c(O)ccc12 | 6.30 | –
20 | Cc1ccc(-c2cc(C(=O)Nc3sc(C(=O)OC(C)C)c(C)c3C(N)=O)c3ccccc3n2)s1 | 5.96 | –

Row | Structure (SMILES) | pIC50 | IC50
21 | O=C1/C(=C/c2ccc(O)c(O)c2)SC(=S)N1c1ccc(O)cc1 | 5.59 | –
22 | N#Cc1c(N)nc(SCC(=O)c2ccc(O)c(O)c2)c(C#N)c1-c1ccc(O)cc1 | 6.37 | –
23 | O=c1[nH]c(=S)n(-c2ccccc2F)c(O)c1C=C1C=CC=N1 | 5.64 | –
24 | Cc1ccc(C(=O)Nc2sc(C)c(C)c2C(N)=O)cc1 | 6.10 | –
25 | CC(C)=CCC/C(C)=C/Cc1cc(/C=C/c2cc(O)c(C/C=C(\C)CCC=C(C)C)c(O)c2)cc(O)c1O | 5.09 | –
26 | O=C1c2cc([N+](=O)[O-])ccc2-c2ccc3c4ccc5c6c(ccc(c7ccc1c2c73)c64)C(=O)c1cc([N+](=O)[O-])ccc1-5 | 5.40 | –
27 | CC1=C(C)CC(C(=O)Nc2ccc(N3C(=O)c4ccccc4C3=O)cc2)C(C(=O)O)C1 (centres undefined) | – | > 100 µM (inactive)
28 | C=CC1=C(C)C2=NC1=CC1=NC(=CC3=C(C)C4=C(O)C(C(=O)OC)C(=C5NC(=C2)C(C)C5CCC(=O)OC/C=C(\C)CCCC(C)CCCC(C)CCCC(C)C)C4=N3)C(CC)=C1C (centres undefined) | – | > 100 µM (inactive)
29 | O=C1C=CC(=O)C(c2cc(Cl)ccc2Cl)=C1 | 7.00 | –
30 | O=C1NC(=S)N(c2ccc(Cl)cc2)C(=O)/C1=C/c1ccc(Br)o1 | 5.77 | –
31 | CCCc1cc(=O)oc2c3c(c4c(c12)OC(C)(C)C=C4)O[C@H](C)[C@@H](C)[C@H]3OC | – | inactive
32 | CCOc1cccc(N2C(=O)/C(=C/c3cn(CC(=O)OC)c4ccccc34)C(=O)NC2=S)c1 | 5.55 | –
33 | C=CCN1C(=O)/C(=C\c2ccc([N+](=O)[O-])o2)C(=O)NC1=S | – | inactive
34 | O=c1c(O)c(-c2ccc(O)c(O)c2)oc2cc(O)cc(O)c12 | 5.05 | –
35 | NC(=O)c1c(N)sc2c1CCCCC2 | 5.60 | –
36 | Cc1cc(O)c2c(c1O)C(=O)C13C(=C2O)C(=O)C2C(O)C1C1C(O)C3C(=O)C3=C(O)c4c(O)cc(C)c(O)c4C(=O)C321 (centres undefined) | 5.09 | –
37 | COc1ccc2c(c1)N(C(=O)CN1C(=O)c3ccccc3C1=O)C(C)(C)c1ssc(=S)c1-2 | 5.43 | –
38 | O=C1C=CC(=O)c2c(O)cccc21 | 5.51 | –
39 | CC(C)c1ccc(O)c(O)c(=O)c1 | 6.00 | –
40 | CCOc1ccc(C(=O)Nc2ccc3c(c2)C(=O)c2ccccc2C3=O)cc1 | 5.37 | –

Row | Structure (SMILES) | pIC50 | IC50
41 | Cc1ccc(NC(=O)c2c(NC(=O)C(F)(F)F)sc(-c3ccccc3)c2C)c(C)c1 | 5.70 | –
42 | O=C1NC(=O)/C(=C/c2ccc(-c3ccc(O)c(C(=O)O)c3)o2)S1 | 6.00 | –
43 | O=[N+]([O-])c1c(Cl)cccc1-c1c[nH]cc1Cl | – | > 100 µM (inactive)
44 | N#Cc1c(NC(=O)C(F)(F)F)sc2c3c(=O)c4ccccc4c(=O)c=3oc3ccccc3c12 | – | inactive
45 | COc1ccccc1N=C(NOCc1ccc(Cl)cc1Cl)c1nonc1N | – | inactive
46 | Cc1cc(-c2ccc(C=C3C(=O)NC(=S)NC3=O)o2)c([N+](=O)[O-])cc1C | 5.15 | –
47 | C[C@H]1[C@H](O)c2c(c3c(c4c(-c5ccccc5)cc(=O)oc24)OC(C)(C)C=C3)O[C@@H]1C | – | inactive
48 | O=C(O)c1c(Br)c(Br)c(Br)c(Br)c1C1c2ccc(O)cc2Oc2cc(O)ccc21 | 5.10 | –
49 | CC(C)=CCc1ccc(O)c(=O)cc1C(C)C | – | > 100 µM (inactive)
50 | Cc1cccc(NCC(=O)N/N=C\c2c(Br)cc(Br)c(O)c2Br)c1 | – | inactive
51 | CC(=O)C1=C(O)[C@@]2(O)C(=O)c3c(c(C)c4ccc(C)c(O)c4c3O)C[C@H]2[C@@H](N)C1=O | 5.36 | –
52 | C=Cc1c(C)c2cc3[nH]c(cc4nc(cc5nc(cc1[nH]2)C(C)=C5CCC(=O)O)C(CCC(=O)O)=C4C)c(C)c3C=C | 5.77 | –
53 | CC(C)c1ccc(O)c(=O)cc1 | – | inactive
54 | COc1ccc(/C=C\C(=O)c2c(-c3ccccc3)c3cc(C)ccc3[nH]c2=O)c(OC)c1 | – | inactive
55 | O=C1NC(=S)N(c2ccc(Cl)cc2)C(=O)/C1=C\C=C\c1ccccc1[N+](=O)[O-] | 5.10 | –
56 | O=C1C=CC2=C3c4cc(O)c(O)cc4CC3(O)COC2=C1O (centres undefined) | 5.77 | –
57 | Cc1ccc(-c2c(C#N)c(SCC(=O)c3ccc(O)c(O)c3)nc3c2CCCC3)o1 | 5.82 | –
58 | COC(=O)c1cc2c3c(ccc2[nH]1)N(C(=O)c1cc2c4c(ccc2[nH]1)N(C(=O)c1cc2c5c(ccc2[nH]1)N(C(N)=O)CC5)CC4)CC3 | 5.09 | –
59 | NC(=O)c1c(NC(=O)CCc2ccccc2)sc2c1CCCCCC2 | 5.77 | –
